The record followed here is patent US20260000070A1 (priority 2023, published 2026).

Molecules are shown by their SMILES.

The test system of the assay is endothelial cells / vascular system of perfused tissue.

In the case of `CNCC(O)c1ccc(O)c(O)c1` (centres unmarked) [adrenaline], the flow rate entry is given as “decrease” and the pressure entry is listed as “increase”.
